Where two headings read alike, the source gives them in different places.
Assays:
[1] = tested on: G. lamblia WB; assay: Trophozoite viability IC50 determination, Giardia assay (ATPLite); type: cell-based; settings: Giardia duodenalis, read-out: Cell viability values Mean IC50 (nM) G. lamblia WB
Description: (§1) Giardia cultures: Trophozoites of G. lamblia isolates WB and GS were grown anaerobically in borosilicate glass screw-cap culture tubes (Fisher Scientific) at pH 7.0 in modified TYI-S-33 medium. The medium was supplemented with 10% heat-inactivated bovine serum (Sigma-Aldrich) and 0.05% bovine bile (Sigma-Aldrich). To attain low-oxygen-tension conditions, the tubes were filled to 85 to 90% of their total volume capacity and incubated without shaking at 37° C. Subcultures (2×10^5 trophozoites per tube) were made three times a week. Detachment of trophozoites for inoculation was achieved by chilling the cultures on ice for 20 min. Culturing and detachment of Metronidazole-resistant G. lamblia Assemblage A 713M3 and assemblage B 1279-M1 trophozoites followed the same protocol, except that the growth medium was supplemented with metronidazole gradually increasing the concentration to 10 μM. Amebae cultures: E. histolytica strain HM1:IMSS trophozoites were grown at 37° C. in TYI-S-33 medium supplemented with penicillin (100 U/mL) and streptomycin sulfate (100 μg/mL). Trophozoites were grown anaerobically in borosilicate tubes and subcultures were made 1-2 times a week. Trophozoites were detached for inoculation by chilling the cultures on ice for 20 minutes.
(§2) Trophozoite viability IC50determination
(§3) Giardia assays: 10 μL giardia trophozoites in growth medium were plated at a density of 10,000 cells/well in sterile 96-well black clear bottom assay plates. Fumagillin and fumagillol derivatives were 1:3 serially diluted from a 1 μM DMSO stock solution and then 100 μL/well were transferred in duplicate to the assay wells. Metronidazole (control) was 1:3 serially diluted in growth medium from a 100 μM stock solution in DMSO. The assay plates were placed in a BD GasPak™ EZ Container System (BD Diagnostics) to create an anaerobic growth environment. The sealed containers were incubated at 37° C. for 72 hr. Following incubation, 70 μL/well of the ATPLite reagent (PerkinElmer) was added to the assay plates for one-step lysis and ATP level detection. The luminescent signals of the assay plates were measured on an EnSpire 2300 plate reader (PerkinElmer). Concentration response titration points for each compound were fitted to a 4-parameters logistic nonlinear regression model using KaleidaGraph, yielding the IC50value and standard error (SE).

[2] = tested on: G. lamblia GS; assay: as above; type: cell-based; settings: read-out: Cell viability values Mean IC50 (nM) G. lamblia GS
Description: as §1, §2, §3

[3] = tested on: E. histolytica HM1: IMSS; assay: Trophozoite viability IC50 determination, Amebae assay (ATPLite); type: cell-based; settings: Entamoeba histolytica, read-out: Cell viability values Mean IC50 (nM) E. histolytica HM1: IMSS
Description: as §1, §2, §3
Amebae assays: The protocol is identical to that described above except that the trophozoites were plated at a density of 5000 cells/well because of their larger size.

[4] = target: T1, Recombinant human MetAP2 (Homo sapiens, UniProt P50579); assay: MetAP2 fluorescence assay; type: biochemical; settings: recombinant human MetAP2, H-Met-Gly-Pro-AMC substrate
T1 construct: purchased Bio-Techne/R&D systems
T1 sequence (P50579 whole entry): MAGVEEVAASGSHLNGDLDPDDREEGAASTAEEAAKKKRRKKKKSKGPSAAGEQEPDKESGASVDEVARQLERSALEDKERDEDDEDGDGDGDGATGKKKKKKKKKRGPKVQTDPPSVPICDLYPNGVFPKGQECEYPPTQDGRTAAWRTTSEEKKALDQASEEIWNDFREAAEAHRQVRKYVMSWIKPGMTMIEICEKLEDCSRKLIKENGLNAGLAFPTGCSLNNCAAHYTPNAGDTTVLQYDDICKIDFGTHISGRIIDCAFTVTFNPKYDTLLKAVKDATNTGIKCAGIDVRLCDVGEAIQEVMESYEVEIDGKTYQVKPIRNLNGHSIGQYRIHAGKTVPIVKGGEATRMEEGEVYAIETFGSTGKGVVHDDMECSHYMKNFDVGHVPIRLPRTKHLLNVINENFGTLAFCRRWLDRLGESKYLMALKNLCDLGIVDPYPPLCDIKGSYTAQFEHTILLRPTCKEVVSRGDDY
Description: MetAP2 Fluorescence Assay
Recombinant human MetAP2 (Bio-Techne/R&D systems) was diluted to 10 μg/mL in the assay buffer (50 mM HEPES, 0.1 mM CoCl2, 100 mM NaCl, pH 7.5). The substrate, H-Met-Gly-Pro-AMC (Bio-Techne/R&D systems), was diluted to 500 μM with 2 μg/mL of the coupling enzyme, recombinant human dipeptidyl peptidase-4 (Bio-Techne/R&D systems), in assay buffer. 50 μL of 10 μg/mL recombinant human METAP2 were loaded into a flat-bottom black 96-well plate (Greiner Bio), and the reaction was initiated by adding 50 μL of the substrate/dipeptidyl peptidase-4 mixture. The reaction mixture was incubated at room temperature for 10 minutes, and the fluorescence was measured for 5 minutes at excitation and emission wavelengths of 380 nm and 460 nm, respectively, in kinetic mode. For IC50determination, 0.5 μL inhibitor solution was added to the reaction mixture. The reaction rates were used to calculate IC50with KaleidaGraph.

[5] = trophozoites, 72 hr, anaerobic, ATP level
[6] = Giardia duodenalis, trophozoites, 72 hr, anaerobic, ATP level

SMILES	IC50 [1, 5]	IC50 [2, 6]	IC50 [3, 5]	IC50 [4]	IC50 ([1]; 72 h)	IC50 ([2]; Giardia duodenalis, 72 h)	IC50 ([3]; 72 h)	IC50 [2, 5]
CO[C@@H]1[C@H](OC(=O)Nc2ccc3c(c2)COB3O)CC[C@]2(CO2)[C@H]1[C@@]1(C)O[C@@H]1CC=C(C)C [No 1, (3R,4S,5S,6R)-5-methoxy-4-((2R,3R)-2-methyl-3-(3-methylbut-2-en-1-yl)oxiran-2-yl)-1-oxaspiro[2.5]octan-6-yl (1-hydroxy-1,3-dihydrobenzo[c][1,2]oxaborol-5-yl)carbamate]	< 10 nM	< 10 nM	< 10 nM					
CO[C@@H]1[C@H](OC(=O)Nc2ccc3c(c2)C(C)OB3O)CC[C@]2(CO2)[C@H]1[C@@]1(C)O[C@@H]1CC=C(C)C (stereo partly drawn) [No 2]	< 10 nM	< 10 nM	< 10 nM	< 10 nM				
CO[C@@H]1[C@H](OC(=O)Nc2ccc3c(c2)C(C)(C)OB3O)CC[C@]2(CO2)[C@H]1[C@@]1(C)O[C@@H]1CC=C(C)C [No 3]				< 10 nM	< 10 nM	< 10 nM	< 10 nM	
CO[C@@H]1[C@H](OC(=O)Nc2cc3c(cc2F)B(O)OC3(C)C)CC[C@]2(CO2)[C@H]1[C@@]1(C)O[C@@H]1CC=C(C)C [No 4]				< 10 nM				< 10 nM
CO[C@@H]1[C@H](OC(=O)N(C)c2ccc3c(c2)COB3O)CC[C@]2(CO2)[C@H]1[C@@]1(C)O[C@@H]1CC=C(C)C [No 5]				< 10 nM				
CO[C@@H]1[C@H](OC(=O)Nc2ccc3c(c2)B(O)OC3)CC[C@]2(CO2)[C@H]1[C@@]1(C)O[C@@H]1CC=C(C)C [No 6]				< 10 nM	10.1 to 100 nM	< 10 nM	10.1 to 100 nM	
CO[C@@H]1[C@H](OC(=O)Nc2ccc3c(c2)B(O)OC3C)CC[C@]2(CO2)[C@H]1[C@@]1(C)O[C@@H]1CC=C(C)C (stereo partly drawn) [No 7]				< 10 nM				< 10 nM
CO[C@@H]1[C@H](OC(=O)Nc2cc(F)c3c(c2)B(O)OC3)CC[C@]2(CO2)[C@H]1[C@@]1(C)O[C@@H]1CC=C(C)C [No 8]				< 10 nM				< 10 nM
CO[C@@H]1[C@H](OC(=O)Nc2cc(Cl)c3c(c2)B(O)OC3)CC[C@]2(CO2)[C@H]1[C@@]1(C)O[C@@H]1CC=C(C)C [No 10]				< 10 nM	10.1 to 100 nM	10.1 to 100 nM	10.1 to 100 nM	
CO[C@@H]1[C@H](OC(=O)Nc2cccc3c2COB3O)CC[C@]2(CO2)[C@H]1[C@@]1(C)O[C@@H]1CC=C(C)C [No 12]				< 10 nM	101 to 1000 nM	10.1 to 100 nM	101 to 1000 nM	
CO[C@@H]1[C@H](OC(=O)Nc2ccc3c(c2)CCOB3O)CC[C@]2(CO2)[C@H]1[C@@]1(C)O[C@@H]1CC=C(C)C [No 13]				< 10 nM	10.1 to 100 nM	< 10 nM	101 to 1000 nM	
CO[C@@H]1[C@H](OC(=O)Nc2ccc3c(c2)B(O)OCC3)CC[C@]2(CO2)[C@H]1[C@@]1(C)O[C@@H]1CC=C(C)C [No 14]				< 10 nM	101 to 1000 nM	10.1 to 100 nM	101 to 1000 nM	
CO[C@@H]1[C@H](OC(=O)N(C)c2ccc3c(c2)CCOB3O)CC[C@]2(CO2)[C@H]1[C@@]1(C)O[C@@H]1CC=C(C)C [No 15]				< 10 nM	101 to 1000 nM	101 to 1000 nM	101 to 1000 nM	
CO[C@@H]1[C@H](OC(=O)N(C)c2ccc3c(c2)B(O)OCC3)CC[C@]2(CO2)[C@H]1[C@@]1(C)O[C@@H]1CC=C(C)C [No 16]	101 to 1000 nM	101 to 1000 nM	101 to 1000 nM	< 10 nM				
CO[C@@H]1[C@H](OC(=O)Nc2ccc(B(O)O)cc2)CC[C@]2(CO2)[C@H]1[C@@]1(C)O[C@@H]1CC=C(C)C [No 17]	10.1 to 100 nM	< 10 nM	10.1 to 100 nM	< 10 nM				
CO[C@@H]1[C@H](OC(=O)Nc2cccc(B(O)O)c2)CC[C@]2(CO2)[C@H]1[C@@]1(C)O[C@@H]1CC=C(C)C [No 18]				< 10 nM	101 to 1000 nM	10.1 to 100 nM	101 to 1000 nM	
CO[C@@H]1[C@H](OC(=O)Nc2ccccc2B(O)O)CC[C@]2(CO2)[C@H]1[C@@]1(C)O[C@@H]1CC=C(C)C [No 19]				< 10 nM	101 to 1000 nM	10.1 to 100 nM	101 to 1000 nM	

SMILES	IC50 [1, 5]	IC50 [2, 6]	IC50 [3, 5]	IC50 [4]	IC50 ([1]; 72 h)	IC50 ([2]; Giardia duodenalis, 72 h)	IC50 ([3]; 72 h)	IC50 [2, 5]
CO[C@@H]1[C@H](OC(=O)N(C)c2ccc(B(O)O)cc2)CC[C@]2(CO2)[C@H]1[C@@]1(C)O[C@@H]1CC=C(C)C [No 20]	101 to 1000 nM	101 to 1000 nM	101 to 1000 nM	< 10 nM				
CO[C@@H]1[C@H](OC(=O)Nc2cc(B(O)O)cc(C(=O)O)c2)CC[C@]2(CO2)[C@H]1[C@@]1(C)O[C@@H]1CC=C(C)C [No 21]				< 10 nM	101 to 1000 nM	101 to 1000 nM	101 to 1000 nM	
CO[C@@H]1[C@H](OC(=O)Nc2cc(C(=O)O)ccc2B(O)O)CC[C@]2(CO2)[C@H]1[C@@]1(C)O[C@@H]1CC=C(C)C [No 22]	101 to 1000 nM	101 to 1000 nM	101 to 1000 nM	< 10 nM				
CO[C@@H]1[C@H](OC(=O)Nc2cc(B(O)O)ccc2Cl)CC[C@]2(CO2)[C@H]1[C@@]1(C)O[C@@H]1CC=C(C)C [No 23]				< 10 nM	101 to 1000 nM	101 to 1000 nM	101 to 1000 nM	
CO[C@@H]1[C@H](OC(=O)Nc2cc(C#N)ccc2B(O)O)CC[C@]2(CO2)[C@H]1[C@@]1(C)O[C@@H]1CC=C(C)C [No 24]				< 10 nM	101 to 1000 nM	101 to 1000 nM	> 1000 nM	
COC(=O)c1ccc(B(O)O)c(NC(=O)OC2CCC3(CO3)C(C3(C)OC3CC=C(C)C)C2OC)c1 (stereo not drawn) [No 26]					> 1000 nM	101 to 1000 nM	> 1000 nM	
COC(=O)c1cc(NC(=O)OC2CCC3(CO3)C(C3(C)OC3CC=C(C)C)C2OC)cc(B(O)O)c1 (stereo not drawn) [No 27]					101 to 1000 nM	101 to 1000 nM	101 to 1000 nM	
COC1C(OC(=O)NCc2ccc(F)cc2B(O)O)CCC2(CO2)C1C1(C)OC1CC=C(C)C (stereo not drawn) [No 32]					> 1000 nM	101 to 1000 nM	> 1000 nM	
COC1C(OC(=O)NCc2cc(C#N)cc(B(O)O)c2)CCC2(CO2)C1C1(C)OC1CC=C(C)C (stereo not drawn) [No 36]					> 1000 nM	101 to 1000 nM	> 1000 nM	
CO[C@@H]1[C@H](OC(=O)NCCc2ccccc2B(O)O)CC[C@]2(CO2)[C@H]1[C@@]1(C)O[C@@H]1CC=C(C)C [No 39]				< 10 nM	> 1000 nM	101 to 1000 nM		
COC1C(OC(=O)NCc2cncc(B(O)O)c2)CCC2(CO2)C1C1(C)OC1CC=C(C)C (stereo not drawn) [No 42]					> 1000 nM	101 to 1000 nM	> 1000 nM	
COC1C(OC(=O)N2CCC(n3cc(B(O)O)cn3)CC2)CCC2(CO2)C1C1(C)OC1CC=C(C)C (stereo not drawn) [No 46]					> 1000 nM	101 to 1000 nM	> 1000 nM	
COC1C(OC(=O)N2CC(B(O)O)Cn3ccnc32)CCC2(CO2)C1C1(C)OC1CC=C(C)C (stereo not drawn) [No 56]					> 1000 nM	101 to 1000 nM	> 1000 nM	
COc1nsc(CNC(=O)OC2CCC3(CO3)C(C3(C)OC3CC=C(C)C)C2OC)c1B(O)O (stereo not drawn) [No 57]					> 1000 nM	101 to 1000 nM	> 1000 nM	
COC1C(OC(=O)NCCn2cc(B(O)O)cn2)CCC2(CO2)C1C1(C)OC1CC=C(C)C (stereo not drawn) [No 61]					> 1000 nM	101 to 1000 nM	> 1000 nM	
COC1C(OC(=O)N2CCOc3c(B(O)O)cncc32)CCC2(CO2)C1C1(C)OC1CC=C(C)C (stereo not drawn) [No 66]					> 1000 nM	101 to 1000 nM	> 1000 nM	
